ChEMBL document CHEMBL5252541, “Repurposing antipsychotic drugs into antifungal agents: Synergistic combinations of azoles and bromperidol derivatives in the treatment of various fungal infections” (Eur J Med Chem, 2017)
Calls of active or inactive are those of the source. The rule behind the calls is not given here.

Experiments:
Candida albicans [1] = assay: Antifungal activity against Candida albicans ATCC 10231 measured after 48 hrs by broth microdilution analysis; type: functional
Candida albicans [2] = assay: Synergistic antifungal activity against Candida albicans ATCC 64124 assessed as compound MIC measured after 48 hrs in presence of posaconazole by checkboard based microplate reader analysis; type: functional
Candida albicans [3] = assay: Synergistic antifungal activity against Candida albicans ATCC 64124 assessed as compound MIC measured after 48 hrs in presence of fluconazole by checkboard based microplate reader analysis; type: functional
Nakaseomyces glabratus [4] = assay: Antifungal activity against Candida glabrata ATCC 2001 measured after 48 hrs by broth microdilution analysis; type: functional
Candida albicans [5] = assay: Partial synergistic antifungal activity against Candida albicans ATCC 64124 assessed as fractional inhibitory concentration index measured for 72 hrs in presence of itraconazole; type: functional
Candida albicans [6] = assay: Antifungal activity against Candida albicans ATCC MYA-2310 measured after 48 hrs by broth microdilution analysis; type: functional
Candida albicans [7] = assay: Antifungal activity against Candida albicans ATCC 90819 measured after 48 hrs by broth microdilution analysis; type: functional
Aspergillus terreus = assay: Antifungal activity against Aspergillus terreus ATCC MYA-3633 measured after 48 hrs by broth microdilution analysis; type: functional
Nakaseomyces glabratus [8] = assay: Additive antifungal activity against Candida glabrata ATCC 2001 assessed as fractional inhibitory concentration index measured for 72 hrs in presence of voriconazole; type: functional
Candida albicans [9] = assay: Partial synergistic antifungal activity against Candida albicans ATCC MYA-2310 assessed as fractional inhibitory concentration index measured for 72 hrs in presence of posaconazole; type: functional
Candida albicans [10] = assay: Partial synergistic antifungal activity against Candida albicans ATCC MYA-2310 assessed as fractional inhibitory concentration index measured for 72 hrs in presence of voriconazole; type: functional
Candida albicans [11] = assay: Synergistic antifungal activity against Candida albicans ATCC 90819 assessed as fractional inhibitory concentration index measured for 72 hrs in presence of posaconazole; type: functional
Candida albicans [12] = assay: Synergistic antifungal activity against Candida albicans ATCC 90819 assessed as fractional inhibitory concentration index measured for 72 hrs in presence of voriconazole; type: functional
Nakaseomyces glabratus [13] = assay: Synergistic antifungal activity against Candida glabrata ATCC 2001 assessed as fractional inhibitory concentration index measured for 72 hrs in presence of voriconazole; type: functional
Candida albicans [14] = assay: Fungicidal activity against Candida albicans ATCC 64124 assessed as reduction in colony forming units at 2 to 8 times MIC incubated after 6 hrs by time kill assay; type: functional, organism-based
[15] = Cytotoxicity against human BEAS-2B cells assessed as cell survival by XTT assay; type: toxicity, cell-based; conditions: read-out: Activity
[16] = Cytotoxicity against mouse J774.A1 cells assessed as cell survival by XTT assay; type: toxicity, cell-based; conditions: read-out: Activity
HEK293 [17] = assay: Cytotoxicity against HEK293 cells assessed as cell survival up to 4 microg/ml by XTT assay; type: toxicity, cell-based; conditions: human, dose < 4 µg/ml
J774.A1 [18] = assay: Cytotoxicity against mouse J774.A1 cells assessed as cell survival up to 4 microg/ml by XTT assay; type: toxicity, cell-based; conditions: dose < 4 µg/ml
J774.A1 [19] = assay: Cytotoxicity against mouse J774.A1 cells assessed as cell survival at 8 microg/ml by XTT assay; type: toxicity, cell-based; conditions: j774.a1, dose 8 µg/ml
HEK293 [20] = assay: Cytotoxicity against human HEK293 cells assessed as cell survival at 64 microg/ml by XTT assay; type: toxicity, cell-based; conditions: dose 64 µg/ml
[21] = Cytotoxicity against mouse J774.A1 cells assessed as cell survival at 64 microg/ml by XTT assay; type: toxicity, cell-based; conditions: at 64 µg/mL, read-out: Activity
HEK293 [22] = assay: Cytotoxicity against HEK293 cells assessed as cell survival at 8 microg/ml by XTT assay; type: toxicity, cell-based; conditions: human, dose 8 µg/ml
J774.A1 [23] = assay: Cytotoxicity against mouse J774.A1 cells assessed as cell survival at 16 microg/ml in presence of voriconazole by XTT assay; type: toxicity, cell-based; conditions: dose 16 µg/ml
Candida albicans [24] = assay: Additive antifungal activity against Candida albicans MYA-1003 assessed as fractional inhibitory concentration index measured for 72 hrs in presence of voriconazole

In the case of O=C(CCCN1CCC(O)(c2ccc(Br)cc2)CC1)c1ccc(F)cc1 [BROMPERIDOL], the MIC (Candida albicans [1]) is reported as > 128 µg/mL, the MIC (Candida albicans [2]) is reported as 4 µg/mL and the MIC (Candida albicans [3]) is reported as 64 µg/mL. For the same compound, the MIC (Nakaseomyces glabratus [4]) was > 128 µg/mL, the “fractional inhibitory concentration index (FICI)” value (Candida albicans [5]) was 0.56 and the MIC (Candida albicans [6]) was > 128 µg/mL. For the same compound, the MIC (Candida albicans [7]) was > 128 µg/mL, the MIC (Aspergillus terreus) was > 128 µg/mL and the “fractional inhibitory concentration index (FICI)” value (Nakaseomyces glabratus [8]) was 0.51. The “fractional inhibitory concentration index (FICI)” value (Candida albicans [9]) was 0.52, the “fractional inhibitory concentration index (FICI)” value (Candida albicans [10]) was 0.53 and the “fractional inhibitory concentration index (FICI)” value (Candida albicans [11]) was 0.5. For the same compound, the “fractional inhibitory concentration index (FICI)” value (Candida albicans [12]) was 0.5, the fractional inhibitory concentration index (FICI) (Nakaseomyces glabratus [13]) was 0.51 and the Activity (Candida albicans [14]) was “Active”. For the same compound, the viability [15] was > 100%, the viability [16] was > 100% and the Activity (HEK293 [17]) was “Non-Toxic”. For the same compound, the Activity (J774.A1 [18]) was “Non-Toxic”, the Activity (J774.A1 [19]) was “Non-Toxic” and the Activity (HEK293 [20]) was “Non-Toxic”. The viability at 64 microg/ml [21] was 30%, the Activity (HEK293 [22]) was “Non-Toxic” and the Activity (J774.A1 [23]) was “Non-Toxic”. The “fractional inhibitory concentration index (FICI)” value (Candida albicans [24]) was 0.52.
